According to patent US9649314B2, “Pyrimido[4,5-b]quinoline-4,5(3H,10H)-diones” (NOVARTIS AG, priority 2012, dated 2017):

Test system: CFTR-Y122X
Assay: CFTR-Y122X assay (dual reporter isogenic Hek293 cell lines, Renilla luminescence readthrough)
Format: cell-based
Conditions: Homo sapiens, HEK293; for Emax / AC50: nonsense mutation suppression, 24 h incubation; for Emax: 100% = 14 mM paromomycin, tested up to 100 μM, read-out: Amax [%]; for Emax at 25 µM: measured at 25 μM compound concentration (footnote a), read-out: Amax [%]: % nonsense mutation suppression relative to paromomycin reference activity
Description: Activity of compounds of the present invention was examined in recombinant, dual reporter isogenic Hek293 cell lines (“CFTR-Y122X assay”). The engineered reporter constructs contained the 18 bp sequence stretch corresponding to a common Y122X PTC mutation in CFTR class I mutant patients (see Sermet-Gaudelus, BMC Medicine, 2007, 5(5)). Instead of a tyrosine (Y) in position 122 of the CFTR protein a TGA stop codon interrupts the open reading frame (Y122X) of the corresponding mRNA. This TGA stop codon triplet (followed by the pyrimidine base cytosine) is permissive to aminoglycoside mediated translational readthrough which served as positive control for high throughput screening. A corresponding TAA stop codon variant and a wildtype non mutated construct was used for confirmation and counter screening. The CFTR sequence was sandwiched between an eGFP reporter, and a triple myc tag sequence fused to a full length Renilla reporter. All sequences, including an intron containing one positioned pre-eGFP (b-globin intron) were cloned in frame. The corresponding expression constructs were stably expressed in the isogenic HEK-R4 cell host (Invitrogen Incorp.) and selected by blasticidin resistance. The isogenic integration of the construct minimizes gene dose effects and improves assay reproducibility. Stably integrated single cell derived clones were selected and characterized for aminoglycoside mediated readthrough. […] Readthrough of Y122X accumulates an intracellular localized fusion protein approximately 65.5 kDa in size as controlled by western blot analysis and immunofluorescence using an anti-renilla antibody. The eGFP reporter pre-PTC mutation serves as visual control for genetic stability of the screening clones and minimizes protein degradation of small fusion protein amounts. In the assay, compound concentration was 10 μM. In miniaturized 1536 well format 2000 cells were dispensed in 4 μl/well and incubated for 24 h at 37° C., 5% CO2. 40 nl compounds were placed on the cells with control wells containing 1 ul Paramomycin and 14.4 mM final concentration. Compounds were incubated for 24 h. Renilla Glo substrate (2.5 ul) was added and plates were centrifuged and processed for luminescence measurement using various readers. Activity calculation was done using the equation: A1 (%)=100*(S−NC)/(AC−NC) where AC, NC and S correspond to active controls (injection of Stimulation buffer=100% stimulation), neutral controls (buffer injection which Iloprost EC10) and screening samples (S). NC corresponds to 0% activity whereas AC is 100% activity (14 mM paromomycin). False positive artefacts were removed in confirmation and validation screening using the same assay format followed by counterscreening using the respective wildtype construct (w/o PTC mutation) cell model. Compounds were tested up to 100 μM compound concentration.

Row | Compound | Emax | AC50 | Emax at 25 µM
1 | CCCCCCc1nc2c(c(=O)c3ccccc3n2C)c(=O)n1-c1ccccc1 [Example 1.47, 2-hexyl-10-methyl-3-phenylpyrimido[4,5-b]quinoline-4,5(3H,10H)-dione] | 210% | 11.3 µM | 
2 | CCCCCCCc1nc2c(c(=O)c3ccccc3n2C)c(=O)n1-c1ccccc1 [Example 1.48, 2-heptyl-10-methyl-3-phenylpyrimido[4,5-b]quinoline-4,5(3H,10H)-dione] | 235% | 11.7 µM | 
3 | C=CCn1c2ccccc2c(=O)c2c(=O)n(C3CCCC3)c(C(C)C)nc21 [Example 2.1, 10-allyl-3-cyclopentyl-2-isopropylpyrimido[4,5-b]quinoline-4,5(3H,10H)-dione] | 102% | 21 µM | 
4 | CC(C)c1nc2[nH]c3ccccc3c(=O)c2c(=O)n1C1CCCC1 [Example 2.2, 3-cyclopentyl-2-isopropylpyrimido[4,5-b]quinoline-4,5(3H,10H)-dione] | 235% | 2.1 µM | 
5 | CCn1c2ccccc2c(=O)c2c(=O)n(C3CCCC3)c(C(C)C)nc21 [Example 2.3, 3-cyclopentyl-10-ethyl-2-isopropylpyrimido[4,5-b]quinoline-4,5(3H,10H)-dione] | 101% | 21.6 µM | 
6 | CCC(C)c1nc2c(c(=O)c3ccccc3n2C)c(=O)n1C1CCCC1 (stereo not drawn) [Example 2.4, 2-(sec-butyl)-3-cyclopentyl-10-methylpyrimido[4,5-b]quinoline-4,5(3H,10H)-dione] | 258% | 6.1 µM | 
7 | CC(C)Cc1nc2c(c(=O)c3ccccc3n2C)c(=O)n1C1CCCC1 [Example 2.5, 3-cyclopentyl-2-isobutyl-10-methylpyrimido[4,5-b]quinoline-4,5(3H,10H)-dione] | 243% | 8.1 µM | 
8 | Cn1c2ccccc2c(=O)c2c(=O)n(C3CCCC3)c(C(C)(C)C)nc21 [Example 2.6, 2-(tert-butyl)-3-cyclopentyl-10-methylpyrimido[4,5-b]quinoline-4,5(3H,10H)-dione] |  |  | 127%
9 | CC(C)c1nc2c(c(=O)c3ccccc3n2C)c(=O)n1C1CCOCC1 [Example 2.7, 2-isopropyl-10-methyl-3-(tetrahydro-2H-pyran-4-yl)pyrimido[4,5-b]quinoline-4,5(3H,10H)-dione] |  |  | 151%
10 | CC(C)c1nc2c(c(=O)c3ccccc3n2C)c(=O)n1N1CCCCC1 [Example 2.8, 2-isopropyl-10-methyl-3-(piperidin-1-yl)pyrimido[4,5-b]quinoline-4,5(3H,10H)-dione] | 264% | 10.6 µM | 
11 | COc1cccc2c(=O)c3c(=O)n(C4CCCC4)c(C(C)C)nc3n(C)c12 [Example 2.9, 3-cyclopentyl-2-isopropyl-9-methoxy-10-methylpyrimido[4,5-b]quinoline-4,5(3H,10H)-dione] | 73% | 18.4 µM | 
12 | COc1ccc2c(c1)c(=O)c1c(=O)n(C3CCCC3)c(C(C)C)nc1n2C [Example 2.10, 3-cyclopentyl-2-isopropyl-7-methoxy-10-methylpyrimido[4,5-b]quinoline-4,5(3H,10H)-dione] | 25% | 25 µM | 
13 | CC(C)c1nc2c(c(=O)c3cc(Cl)ccc3n2C)c(=O)n1C1CCCC1 [Example 2.11, 7-chloro-3-cyclopentyl-2-isopropyl-10-methylpyrimido[4,5-b]quinoline-4,5(3H,10H)-dione] | 192% | 10.7 µM | 
14 | CC(C)c1nc2c(c(=O)c3cc(Br)ccc3n2C)c(=O)n1C1CCCC1 [Example 2.12, 7-bromo-3-cyclopentyl-2-isopropyl-10-methylpyrimido[4,5-b]quinoline-4,5(3H,10H)-dione] |  |  | 23%
15 | C#Cc1ccc2c(c1)c(=O)c1c(=O)n(C3CCCC3)c(C(C)C)nc1n2C [Example 2.13, 3-cyclopentyl-7-ethynyl-2-isopropyl-10-methylpyrimido[4,5-b]quinoline-4,5(3H,10H)-dione] | 11% |  | 
16 | CC(C)c1nc2c(c(=O)c3cc(C#N)ccc3n2C)c(=O)n1C1CCCC1 [Example 2.14, 3-cyclopentyl-2-isopropyl-10-methyl-4,5-dioxo-3,4,5,10-tetrahydropyrimido[4,5-b]quinoline-7-carbonitrile] | 9% | 6.6 µM | 
17 | CC(C)c1nc2c(c(=O)c3ccccc3n2C)c(=O)n1C1CCCC1 [Example 2.15, 3-cyclopentyl-2-isopropyl-10-methylpyrimido[4,5-b]quinoline-4,5(3H,10H)-dione] | 275% | 3.8 µM | 
18 | Cn1c2ccccc2c(=O)c2c(=O)n(C3CCCCC3)c(-c3ccccc3)nc21 [Example 2.16, 3-cyclohexyl-10-methyl-2-phenylpyrimido[4,5-b]quinoline-4,5(3H,10H)-dione] | 312% | 8.6 µM | 
19 | CCCCCc1nc2c(c(=O)c3ccccc3n2C)c(=O)n1C1CCCC1 [Example 2.18, 3-cyclopentyl-10-methyl-2-pentylpyrimido[4,5-b]quinoline-4,5(3H,10H)-dione] | 222% | 9.9 µM | 
20 | Cn1c2ccccc2c(=O)c2c(=O)n(C3CCCCC3)c(-c3cccc([N+](=O)[O-])c3)nc21 [Example 2.19, 3-cyclohexyl-10-methyl-2-(3-nitrophenyl)pyrimido[4,5-b]quinoline-4,5(3H,10H)-dione] | 248% | 11.6 µM | 
21 | CCCc1nc2c(c(=O)c3ccccc3n2C)c(=O)n1C1CCCC1 [Example 2.21, 3-cyclopentyl-10-methyl-2-propylpyrimido[4,5-b]quinoline-4,5(3H,10H)-dione] | 214% | 7.6 µM | 
22 | Cn1c2ccccc2c(=O)c2c(=O)n(C3CCCCCC3)c(-c3cccs3)nc21 [Example 2.22, 3-cycloheptyl-10-methyl-2-(thiophen-2-yl)pyrimido[4,5-b]quinoline-4,5(3H,10H)-dione] | 197% | 11 µM | 
23 | CCCc1nc2c(c(=O)c3ccccc3n2C)c(=O)n1C1CCCCCC1 [Example 2.23, 3-cycloheptyl-10-methyl-2-propylpyrimido[4,5-b]quinoline-4,5(3H,10H)-dione] | 181% | 5 µM | 
24 | CCCc1nc2c(c(=O)c3ccccc3n2C)c(=O)n1C1CCCCC1 [Example 2.24, 3-cyclohexyl-10-methyl-2-propylpyrimido[4,5-b]quinoline-4,5(3H,10H)-dione] | 170% | 2.3 µM | 
25 | CCCCCc1nc2c(c(=O)c3ccccc3n2C)c(=O)n1C1CCCCCC1 [Example 2.25, 3-cycloheptyl-10-methyl-2-pentylpyrimido[4,5-b]quinoline-4,5(3H,10H)-dione] | 149% | 6.4 µM | 
26 | Cn1c2ccccc2c(=O)c2c(=O)n(C3CCCCCC3)c(-c3ccccc3)nc21 [Example 2.26, 3-cycloheptyl-10-methyl-2-phenylpyrimido[4,5-b]quinoline-4,5(3H,10H)-dione] | 97% | 11.1 µM | 
27 | COc1ccc(-c2nc3c(c(=O)c4ccccc4n3C)c(=O)n2C2CCCCC2)cc1 [Example 2.27, 3-cyclohexyl-2-(4-methoxyphenyl)-10-methylpyrimido[4,5-b]quinoline-4,5(3H,10H)-dione] |  |  | 97%
28 | Cn1c2ccccc2c(=O)c2c(=O)n(C3CCCC3)c(C3CCCCC3)nc21 [Example 2.28, 2-cyclohexyl-3-cyclopentyl-10-methylpyrimido[4,5-b]quinoline-4,5(3H,10H)-dione] | 89% | 15.1 µM | 
